# According to US20250313547A1, “CEREBLON LIGANDS AND BIFUNCTIONAL COMPOUNDS COMPRISING THE SAME” (Arvinas Operations, Inc., priority 2017, published 2025):
# Test system: androgen receptor (AR)
# Assay: AR ELISA assay (androgen receptor degradation)
# Assay type: cell-based
# Settings: LNCaP and/or VCaP cells, 5 hours drug treatment; for AR Dmax: % degraded
# Procedure: 5. AR ELISA Assay Protocol
# Compounds were evaluated in this assay in LNCaP and/or VCaP cells utilizing similar protocols. The protocols used with VCaP cells are described below. The androgen receptor ELISA assay was performed using PathScan AR Sandwich ELISA (Cell Signaling Catalog #12850) according to the following assay steps:
# VCaP cells were seeded at 40,000 cells/well at a volume of 100 µL/well in VCaP assay medium [Phenol red free RPMI (Gibco Cat #11835-030); 5% Charcoal Stripped (Dextran treated) FBS (Omega Scientific, Cat #FB-04); 1% penstrep (Life Technologies, Gibco Cat #: 10378-016)] in Corning 3904 plates. The cells were incubated for a minimum of 3 days. Cells were dosed with PROTACs diluted in 0.01% DMSO and the drug treatment was allowed for 5 hours.
# AR ELISA (Cell Signaling) was performed as follows. 1×Cell Signaling Cell lysis buffer was made (Catalogue #9803; comes with the kit). Media from the treated wells is aspirated, and 100 μL 1×cell lysis buffer/well is added. The cells were placed on a shaker for 10 minutes at 4° C. Twenty microliters of lysate was transferred to 100 μl of Diluent in ELISA plate ([…]-0.075 μg/ml). The lysate-diluent mixture was shaken for 30 minutes at 37° C. Allow mouse AR antibody, anti-mouse antibody, TMB, and STOP solution to come to room temperature. The 1×ELISA buffer included in kit was made and loaded in the reservoir. Media from the plates was discarded, the ELISA plate tapped hard on paper towel, and washed 4×200 μl ELISA wash buffer using a plate washer.
# One-hundred (100) μL/well of mouse AR detection Ab was added; the plates were covered and shaken at 37° C. for 1 hour; media was discarded from the plates, the plates were tapped on a paper towel, washed 4× with 200 μL ELISA wash buffer with a plate washer.
# One-hundred (100) μL/well of anti-mouse—HRP conjugated Ab (comes with the kit) was added; the plates were covered and shaken at 37° C. for 30 minutes; the TMB reagent was allowed to come to room temperature; the media was discard from the plate, the plates were tapped on paper towel, washed 4× with 200 μL of ELISA wash buffer; the plates were tapped the plates on paper towel. One-hundred (100) μL of TMB was added and the plates shaken for 2 minutes—while watching for color development. One-hundred (100) μL Stop solution was added when light blue color developed. Plates were shaken and read at 450 nm.
Structure (SMILES),AR Dmax,DC50
"CC1(C)[C@H](NC(=O)c2ccc(N3CCC(CN4CCN(c5ccc6c(c5)C(=O)N(c5ccc(=O)[nH]c5)C6=O)CC4)CC3)cc2)C(C)(C)[C@H]1Oc1ccc(C#N)c(Cl)c1 [PROTAC-43, N-((1r,3r)-3-(3-chloro-4-cyanophenoxy)-2,2,4,4-tetramethylcyclobutyl)-4-(4-((4-(1,3-dioxo-2-(6-oxo-1,6-dihydropyridin-3-yl)isoindolin-5-yl)piperazin-1-yl)methyl)piperidin-1-yl)benzamide]",C (C <= 50),≥ 100 nM
"Cn1c(-c2ccc(N3CCN(CC4CCN(c5ccc(C(=O)N[C@H]6C(C)(C)[C@H](Oc7ccc(C#N)c(Cl)c7)C6(C)C)cc5)CC4)CC3)cc2)nn(C2CCC(=O)NC2=O)c1=O (some centres unmarked) [PROTAC-70, N-((1r,3r)-3-(3-chloro-4-cyanophenoxy)-2,2,4,4-tetramethylcyclobutyl)-4-(4-((4-(4-(1-(2,6-dioxopiperidin-3-yl)-4-methyl-5-oxo-4,5-dihydro-1H-1,2,4-triazol-3-yl)phenyl)piperazin-1-yl)methyl)piperidin-1-yl)benzamide]",A (A > 75),< 1 nM
"CC1(C)[C@H](NC(=O)c2ccc(N3CCN(CCCCCCOc4cnn(C5CCC(=O)NC5=O)c(=O)c4)CC3)nc2)C(C)(C)[C@H]1Oc1ccc(C#N)c(Cl)c1 (some centres unmarked) [PROTAC-29, N-((1r,3r)-3-(3-chloro-4-cyanophenoxy)-2,2,4,4-tetramethylcyclobutyl)-6-(4-(6-((1-(2,6-dioxopiperidin-3-yl)-6-oxo-1,6-dihydropyridazin-4-yl)oxy)hexyl)piperazin-1-yl)nicotinamide]",B (50 < B <= 75),< 1 nM
"CC1(C)[C@H](NC(=O)c2ccc(CCCN3CCC4(CC3)CC(=O)N(C3CCC(=O)NC3=O)C4=O)cc2)C(C)(C)[C@H]1Oc1ccc(C#N)c(Cl)c1 (mixture of isomers) [PROTAC-76, rac-N-((1r,3r)-3-(3-chloro-4-cyanophenoxy)-2,2,4,4-tetramethylcyclobutyl)-4-(3-(2-(2,6-dioxopiperidin-3-yl)-1,3-dioxo-2,8-diazaspiro[4.5]decan-8-yl)propyl)benzamide]",C (C <= 50),≥ 100 nM
"Cc1nc2c(OCCCCCN3CCN(c4ccc(C(=O)N[C@H]5C(C)(C)[C@H](Oc6ccc(C#N)c(Cl)c6)C5(C)C)cn4)CC3)cccc2c(=O)n1C1CCC(=O)NC1=O (some centres unmarked) [PROTAC-30, N-((1r,3r)-3-(3-chloro-4-cyanophenoxy)-2,2,4,4-tetramethylcyclobutyl)-6-(4-(5-((3-(2,6-dioxopiperidin-3-yl)-2-methyl-4-oxo-3,4-dihydroquinazolin-8-yl)oxy)pentyl)piperazin-1-yl)nicotinamide]",C (C <= 50),≥ 100 nM
"CC1(C)[C@H](NC(=O)c2ccc(N3CCN(CCOCCOc4cccc5c4CN(c4ccc(F)cc4F)C5=O)CC3)nc2)C(C)(C)[C@H]1Oc1ccc(C#N)c(Cl)c1 [PROTAC-40, rac-N-((1r,3r)-3-(3-chloro-4-cyanophenoxy)-2,2,4,4-tetramethylcyclobutyl)-6-(4-(2-(2-((2-(2,4-difluorophenyl)-1-oxoisoindolin-4-yl)oxy)ethoxy)ethyl)piperazin-1-yl)nicotinamide]",C (C <= 50),≥ 100 nM
"CC1(C)[C@H](NC(=O)c2ccc(N3CCN(CCCCCOc4ccc5c(c4)C(=O)N(c4ccc(F)cc4F)C5=O)CC3)nc2)C(C)(C)[C@H]1Oc1ccc(C#N)c(Cl)c1 [PROTAC-41, N-((1r,3r)-3-(3-chloro-4-cyanophenoxy)-2,2,4,4-tetramethylcyclobutyl)-6-(4-(5-((2-(2,4-difluorophenyl)-1,3-dioxoisoindolin-5-yl)oxy)pentyl)piperazin-1-yl)nicotinamide]",C (C <= 50),≥ 100 nM
